Where two headings read alike, the source gives them in different places.
How the values were obtained:
[1] = system: Aβ(1-42)-induced memory impairment; test: Step-down test, Aβ(1-42)-induced impairment (ICV injection) in mice; type: in vivo
Protocol: (§1) Aβ(1-42) (10 μg/mouse) was administered via ICV injection. The sham group was given same volumn of Ringer's solution. One week later, The mice with injection of Aβ(1-42) were randomly divided into 3 groups, and were administered by oral with saline, CE (5 mg/kg) or W6 (1 mg/kg), respectively. Two weeks later, step-down test and water-maze test were performed for evaluating the capacity of learning and memory of mice.

[2] = system: Aβ(1-42)-induced memory impairment; test: Water-maze test, Aβ(1-42)-induced impairment of learning and memory in mice; type: in vivo
Protocol: as §1
(§2) Water-maze test: Each mouse was first placed on the stairs, then released into the water from position 1 and allowed 120 sec to find the stairs. The mouse received 2 trials per day for 3 days. The starting location varied from position 1 to position 2 and position 3 for the next 2 day. The distance and the dead end increased every day. In D4, the mouse was put into water from position 3, the time to escape from water to the stairs and the number of entering the dead ends (number of errors) were measured. This method is used to evaluate the spatial performance and learning and memory performance of animal.

[3] = system: cycloheximide-induced memory deficit; test: Step-down passive avoidance test, impairment induced by cycloheximide in mice; type: in vivo; settings: for Improvement (%): step-down latency; for Improvement (%) / Latency / No. of errors: cycloheximide 120 mg/kg i.p.; for Latency / No. of errors: step-down test; for No. of errors: during 5 min
Protocol: The randomization and the administration of drugs are as before. The mice were administered with cycloheximide (120 mg/kg i.p), except for the control group. 30 min later, each mouse was individually placed onto the platform of the step-down apparatus, and trained for 5 min. The retention test started 24 hours later, the step-down latency and the number of step-down events (number of errors) during 5 min were recorded.

[4] = target: Acetylcholinesterase (AchE) (Rattus norvegicus, UniProt P37136); settings: for inhibition (%): AchE activity, rat forebrain; for AchE activity: rat forebrain homogenate
Chain of Acetylcholinesterase (AchE) (P37136 32-614): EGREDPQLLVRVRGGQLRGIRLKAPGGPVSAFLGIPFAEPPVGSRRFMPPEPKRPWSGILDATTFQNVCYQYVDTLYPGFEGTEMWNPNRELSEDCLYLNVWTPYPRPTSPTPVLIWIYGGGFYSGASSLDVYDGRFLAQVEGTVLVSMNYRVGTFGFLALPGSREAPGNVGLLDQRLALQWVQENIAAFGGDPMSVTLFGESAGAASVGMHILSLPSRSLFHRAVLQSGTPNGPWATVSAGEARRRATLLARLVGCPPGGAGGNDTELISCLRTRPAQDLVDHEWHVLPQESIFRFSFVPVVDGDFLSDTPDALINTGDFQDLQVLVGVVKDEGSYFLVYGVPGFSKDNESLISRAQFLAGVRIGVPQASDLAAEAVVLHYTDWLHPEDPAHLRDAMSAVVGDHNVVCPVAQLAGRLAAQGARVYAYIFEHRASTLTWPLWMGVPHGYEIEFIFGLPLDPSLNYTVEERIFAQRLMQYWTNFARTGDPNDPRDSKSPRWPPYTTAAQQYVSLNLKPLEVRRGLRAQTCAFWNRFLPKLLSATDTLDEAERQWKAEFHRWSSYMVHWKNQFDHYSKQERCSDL
Protocol: The rats were fasting over night and given a single oral dose of drugs. 1 hour later, the rats were decapitated, the forebrains were rapidly removed under ice bath, weighed and homogenized in 0.9% saline using a ultrasonic homogenizer to obtain 10% brain homogenate. The homogenate was centrifuged (6000 rpm) for 20 mins at low temperature, and retained the supernatant. Then the AchE activity was measured with an assay kit.

[5] = system: learning and memory performance impairment caused by permanent occlusion of carotid arteries; test: Water-maze test, permanent occlusion of 2 carotid arteries (2-VO) in mice; type: in vivo; settings: 2-VO mice, four weeks after surgery, dose 1 mg/kg po daily
Excerpt: as §2
(§3) At surgery, under pentobarbital anaesthesia (40 mg/kg i.p.), the common carotid arteries of mice were exposed and occluded with thread permanently and the surrounding skin sutured. Sham-operated controls had their carotids exposed but not occluded. After 1 week, the survival mice with occluded carotids were randomly divided into 3 groups. 2 groups were repeated administered with CE (5 mg/kg, po) or W6 (1 mg/kg, po) daily. Four weeks after surgery, mice were trained and tested in a water maze and step-down apparatus.

[6] = system: learning and memory performance impairment caused by permanent occlusion of carotid arteries; test: Step-down test, permanent occlusion of 2 carotid arteries (2-VO) in mice; type: in vivo
Protocol: as §3

[7] = system: memory impairment induced by scopolamine; test: Step-down passive avoidance test, impairment caused by scopolamine in mice; type: in vivo, Male ICR mice; settings: for Number of errors: during 5 min; for Number of errors / Latency: scopolamine 1 mg/kg i.p.; for effect on scopolamine-induced impairment of passive avoidance (step-down latency, number of errors): result in words
Protocol: Male ICR mice, 24-28 g, were used. The mice were housed for 2 days period of habituation before experiment. Mice were randomized into groups (n=20).
The mice were administered by gavage of physiological saline, or drugs at different doses, respectively in the negative control, scopolamine group, and test drugs groups. Twice daily for 2 days.
At D3, 30 min after administration of test drugs, scopolamine (1 mg/kg i.p) was administered, except for the control group.
30 min later, each mouse was individually placed onto the safety platform in the box of step-down apparatus. When the mouse stepped down and touched the grid floor, it was given an electric shock with a tension of 36V, and jumped back onto the rubber platform. Each animal was trained for 5 min and returned to the home cage.
24 hours after the learning trial, the animal was again placed on the platform and the step-down latency and the number of step-down events (number of errors) during 5 min were recorded.

[8] = system: KM mice; test: Acute toxicity study in mice; type: in vivo; settings: 0.5 g/kg i.p. or p.o.
Excerpt: KM mice were used for this experiment. 10 male and 10 female mice were included in each group. CE (5 g/kg) or W6-W9 (0.5 g/kg) were given by oral or by i.p. The animals were observed carefully and their body weight were checked every 3 days within 2 weeks.

[9] = step-down test, Aβ(1-42) 10 μg/mouse ICV, mice, dose 1 mg/kg oral, two weeks
[10] = 1 hour after single oral dose 5 mg/kg
[11] = 1 hour after single oral dose 20 mg/kg
[12] = step-down test, 2-VO mice, four weeks after surgery, dose 1 mg/kg po daily

SMILES: CC(C)CC(O[C@@H]1O[C@H](CO)[C@@H](O)[C@H](O)[C@H]1O)(C(=O)OCc1ccc(O[C@@H]2O[C@H](CO)[C@@H](O)[C@H](O)[C@H]2O)cc1)C(O)C(=O)OCc1ccc(O[C@@H]2O[C@H](CO)[C@@H](O)[C@H](O)[C@H]2O)cc1 (stereo partly drawn) [Compound W6, 1,4-bis(β-D-glucopyranosyloxybenzyl)-2-β-D-glucopyranosyl-2-isobutyltartrate]
- effect on Aβ(1-42)-induced impairment in passive avoidance performance ([1]; mice or rats, treatment for 2 weeks, result in words): significantly blocked
- Latency [1, 9]: 110 ± 37 s
- Number of errors [1, 9]: 0.9 ± 0.2
- effect on Aβ(1-42)-induced decrease in spatial working memory ([2]; treatment for 2 weeks, water maze, result in words): significantly improved
- Number of errors ([2]; water-maze test (entering dead ends), Aβ(1-42) 10 μg/mouse ICV, mice, dose 1 mg/kg oral, two weeks): 3.1 ± 0.8
- Escape Latency ([2]; water-maze test, Aβ(1-42) 10 μg/mouse ICV, mice, dose 1 mg/kg oral, two weeks): 46 ± 11 s
- effect on cycloheximide-induced reduction of latency and number of errors ([3]; passive avoidance, result in words): significantly reversed the cycloheximide-induced reduction of step-down latency
- Improvement (%) ([3]; dose 1.25 mg/kg): 57%
- Improvement (%) ([3]; dose 2.5 mg/kg): 65%
- Improvement (%) ([3]; dose 5 mg/kg): 38%
- Improvement (%) ([3]; dose 10 mg/kg): 61%
- Latency ([3]; dose 1.25 mg/kg): 211 ± 31 s
- Latency ([3]; dose 2.5 mg/kg): 223 ± 24 s
- Latency ([3]; dose 5 mg/kg): 182 ± 33 s
- Latency ([3]; dose 10 mg/kg): 216 ± 29 s
- No. of errors ([3]; dose 1.25 mg/kg): 0.6 ± 1.2
- No. of errors ([3]; dose 2.5 mg/kg): 0.7 ± 0.9
- No. of errors ([3]; dose 5 mg/kg): 0.4 ± 0.5
- No. of errors ([3]; dose 10 mg/kg): 0.3 ± 0.5
- inhibition (%) [4, 10]: 0%
- inhibition (%) [4, 11]: 0%
- AchE activity [4, 10]: 0.80 ± 0.16
- AchE activity [4, 11]: 0.72 ± 0.16
- inhibition on activity of AchE ([4]; single dose to rats): no inhibition
- Escape Latency [5]: 33 ± 19 s
- Number of errors [5]: 5.4 ± 1.4
- effect on deficits of learning and memory caused by cerebral hypoperfusion ([6]; mice and rats, long term treatment, step-down testing and water-maze testing, result in words): significantly alleviated these changes
- Latency [6, 12]: 253 ± 31 s
- Number of errors [6, 12]: 0.2 ± 0.1
- Number of errors ([7]; dose 0.03 mg/kg by gavage): 0.2 ± 0.1
- Number of errors ([7]; dose 0.3 mg/kg by gavage): 0.4 ± 0.2
- Number of errors ([7]; dose 3 mg/kg by gavage): 0.3 ± 0.1
- effect on scopolamine-induced impairment of passive avoidance (step-down latency, number of errors) [7]: attenuated the scopolamine-induced impairment of passive avoidance behaviors
- Latency ([7]; dose 0.03 mg/kg by gavage): 283 ± 38 s
- Latency ([7]; dose 0.3 mg/kg by gavage): 259 ± 34 s
- Latency ([7]; dose 3 mg/kg by gavage): 258 ± 17 s
- acute toxicity (animal death and body weight) [8]: The result is the same

SMILES: CC(C)CC(O)(C(=O)OCc1ccc(O[C@@H]2O[C@H](CO)[C@@H](O)[C@H](O)[C@H]2O)cc1)C(O)C(=O)OCc1ccc(O[C@@H]2O[C@H](CO)[C@@H](O)[C@H](O)[C@H]2O)cc1 (stereo partly drawn) [Compound W7, 1,4-bis(β-D-glucopyranosyloxybenzyl)-2-isobutyltartrate]
- Number of errors ([7]; dose 0.25 mg/kg by gavage): 0.4 ± 0.7
- Number of errors ([7]; dose 1 mg/kg by gavage): 0.2 ± 0.4
- effect on scopolamine-induced impairment of passive avoidance (step-down latency, number of errors) [7]: attenuated the scopolamine-induced impairment of passive avoidance behaviors
- Latency ([7]; dose 0.25 mg/kg by gavage): 205 ± 142 s
- Latency ([7]; dose 1 mg/kg by gavage): 237 ± 125 s
- acute toxicity (animal death and body weight) [8]: The result is the same

SMILES: CC(C)CC(CC(=O)OCc1ccc(O[C@@H]2O[C@H](CO)[C@@H](O)[C@H](O)[C@H]2O)cc1)(O[C@@H]1O[C@H](CO)[C@@H](O)[C@H](O)[C@H]1O)C(=O)OCc1ccc(O[C@@H]2O[C@H](CO)[C@@H](O)[C@H](O)[C@H]2O)cc1 (stereo partly drawn) [Compound W8, 1,4-bis(β-D-glucopyranosyloxybenzyl)-2-β-D-glucopyranosyl-2-isobutylmalate]
- Number of errors ([7]; dose 0.25 mg/kg by gavage): 0.7 ± 0.9
- Number of errors ([7]; dose 1 mg/kg by gavage): 0.3 ± 0.5
- effect on scopolamine-induced impairment of passive avoidance (step-down latency, number of errors) [7]: attenuated the scopolamine-induced impairment of passive avoidance behaviors
- Latency ([7]; dose 0.25 mg/kg by gavage): 197 ± 144 s
- Latency ([7]; dose 1 mg/kg by gavage): 218 ± 127 s
- acute toxicity (animal death and body weight) [8]: The result is the same

SMILES: CC(C)CC(O)(CC(=O)OCc1ccc(O[C@@H]2O[C@H](CO)[C@@H](O)[C@H](O)[C@H]2O)cc1)C(=O)OCc1ccc(O[C@@H]2O[C@H](CO)[C@@H](O)[C@H](O)[C@H]2O)cc1 (stereo partly drawn) [Compound W9, 1,4-bis(β-D-glucopyranosyloxybenzyl)-2-hydroxy-2-isobutylmalate]
- Number of errors ([7]; dose 0.25 mg/kg by gavage): 0.8 ± 0.7
- Number of errors ([7]; dose 1 mg/kg by gavage): 0.4 ± 0.5
- effect on scopolamine-induced impairment of passive avoidance (step-down latency, number of errors) [7]: attenuated the scopolamine-induced impairment of passive avoidance behaviors
- Latency ([7]; dose 0.25 mg/kg by gavage): 140 ± 129 s
- Latency ([7]; dose 1 mg/kg by gavage): 210 ± 134 s
- acute toxicity (animal death and body weight) [8]: The result is the same

From US7557089B2, “Use of derivatives of succinate esters for the treatment of dementia” (priority 2002, dated 2009)
